The target in assay [1] is T1, paracaspase domain of MALT1 (residues 329-728) (Homo sapiens, UniProt Q9UDY8).
T1 construct: labeled MALT1 (329-728) was expressed in BL21 (DE3) E. coli; made in house; host or cells: E. coli BL21 (DE3)
Briefly: HSQC NMR binding. The following applies: HSQC titration. The method, then: Uniformly ^15N and ^13C labeled MALT1 (329-728) was expressed in BL21 (DE3) E. coli growing in M9 medium containing 1 g/l [^15N]ammonium chloride and 3 g/l [^13C]glucose (Cambridge Isotope Labs, Andover, Mass.) and purified from E. coli cell lysate as described in (Wiesmann et al., 2012).
Standard 2D ^1H ^13C NMR spectra of MALT1 (329-728) were recorded in samples containing 10.0 mg/ml protein in 50 mM HEPES (pH 7.5), 50 mM NaCl, and 10% D2O. NMR spectroscopy experiments were recorded on Bruker AV 500 MHz spectrometer (Bruker, Billerica, Mass.), at 310K.
Standard 2D ^1H ^15N HSQC spectra of MALT1 (329-728) were recorded in samples containing 70 μM protein in 25 mM Tris pH 7.5, 250 mM NaCl, 5 mM DTT, 10% D2O, 0.02% NaN3, 2% DMSO. HSQCs were run on a 600 MHz Varian (Varian, Palo Alto, Calif.) at 37° C.

A further assay relates to OCI-Ly3 cells. Briefly: Growth inhibition, ATP-based luminescent assay. The note with it: Homo sapiens; OCI-Ly3, single dose, 48 hr. The assay is classed as cell-based. The method, then: (§1) Cell proliferation was determined by ATP quantification using a luminescent method (CellTiter-Glo, Promega, Madison, Wis.) and Trypan blue dye-exclusion (Sigma, St. Louis, Mo.). Cell viability in drug-treated cells was normalized to their respective controls (fractional viability) and results are given as 1-fractional viability. CompuSyn software (Biosoft, Cambridge, UK) was used to determine drug concentrations inhibiting fractional growth compared to controls.
(§2) DLBCL cell lines were grown in exponential growth conditions during the 48 hr of treatment. Cell proliferation was determined by ATP quantification using a luminescent method (CellTiter-Glo, Promega, Madison, Wis.) and Trypan blue dye-exclusion (Sigma, St. Louis, Mo.). Luminescence was measured using the Synergy4 microplate reader (BioTek Instruments, Winooski, Vt.). Standard curves for each cell line were calculated by plotting the cell number (determined by the Trypan blue method) against their luminescence values and number of cells was calculated accordingly. Cell viability in drug-treated cells was normalized to their respective controls (fractional viability) and results are given as 1-fractional viability. CompuSyn software (Biosoft, Cambridge, UK) was used to determine the drug concentration that inhibits the growth of cell lines by […]. Experiments were performed in triplicate.

The next assay concerns HBL-1 cells. Briefly: Growth inhibition, ATP-based luminescent assay. The note with it: Homo sapiens, HBL1. Type of assay: cell-based. The method, then:
as §1, §2

The subject of another assay is OCI-Ly10 cells. Briefly: Growth inhibition, ATP-based luminescent assay. The assay is classed as cell-based. The note with it: Homo sapiens; OCI-Ly10, single dose, 48 hr. The method, then: as §1, §2
The next assay addresses Caspase-3 (Homo sapiens, UniProt P42574). Briefly: Caspase selectivity. Type of assay: biochemical.
For assay [2], the system named is TMD8 ABC-DLBCL xenografts. Nature of the assay: TMD8 xenograft in NOD-SCID mice. Type of assay: in vivo. The note with it: IP 25 mg/kg/day. The method, then:
Animals were sacrificed 24 hr after the fourteenth injection.
Eight-week old male SCID NOD.CB17-Prkdc^scid/J mice were subcutaneously injected with low-passage 10^7 human HBL-1, TMD8 or OCI-Ly1 cells. Treatment was administered by intra-peritoneal injection. Tumor volume was monitored by three-weekly digital calipering. All procedures followed US NIH protocols and were approved by the Animal Institute Committee of the Weill Cornell Medical College.
Eight-week old male SCID NOD.CB17-Prkdc^scid/J mice were purchased from Jackson Laboratories (Bar Harbor, Minn.) and housed in a clean environment. Mice were subcutaneously injected with low-passage 10^7 human TMD8 or OCI-Ly1 cells in 50% matrigel (BD Biosciences, #354234). Treatment was initiated when tumors reached an average size of 120 mm^3 (17 days post-transplantation). Drugs were reconstituted in DMSO and stored at −80° C. until used and were administered by intra-peritoneal injection. Tumor volume was monitored by three-weekly digital calipering (Fisher Scientific, Thermo Scientific, Rockford, Ill.) and calculated using the formula (smallest diameter^2×largest diameter)/2. Data were expressed as mean±SEM, and differences were considered statistically significant at p<0.05 by paired Student's t-test. All procedures involving animals followed US NIH protocols and were approved by the Animal Institute Committee of the Weill Cornell Medical College of Cornell University.
Paraffin-embedded tumor xenografts were sectioned, dewaxed and submitted to antigen retrieval. For IF-P, Alexa Fluor-488 conjugated secondary antibodies from Invitrogen where used and cell nuclei where counterstained with DAPI. Fluorescent images were taken using an Axiovert 200M fluorescent microscope (Carl Zeiss Inc., Thornwood, N.Y.). Oberkochen, Germany). For IHC, biotin-conjugated secondary antibodies where used. Then avidin/biotin peroxidase was applied to the slides (Vector Laboratories). Color was developed with diaminobenzoate chromogen peroxidase substrate (Vector) and counterstained with hematoxilin-eosyn. […]

Assay [3] has as its system primary human GCB DLBCL cells. Briefly: Primary human DLBCL cells ex vivo, GCB cases, Trypan blue. The following applies: 0.8 μM, 48 hr. Type of assay: cell-based. The method, then:
After 48 hr exposure, cell number and viability were determined using Trypan blue.
Patient de-identified tissues were obtained in accordance with the guidelines and approval of the Weill Cornell Medical College Review Board. Patient samples were processed as previously described (Cerchietti et al., 2010). Briefly, single cell suspensions from lymph node biopsies were obtained by physical disruption of tissues followed by cell density gradient separation (Fico/Lite LymphoH, Atlanta Biologicals, Lawrenceville, Ga.). Cell number and viability were determined by Trypan blue exclusion. Primary DLBCL cells were cultured in 96-well plates. Cells were grown in advanced RPMI medium with 20% FBS supplemented with antibiotics for 48 hours. […] After 48 hr of exposure, viability was determined by using Trypan blue (Sigma). All samples were normalized to their own replicate control. Statistical significance was calculated using paired T-test.

Experimental findings from patent US9592223B2, “Small molecule inhibitors of MALT1” (Cornell University, priority 2012, dated 2017) are described below.

Read-outs that look alike come from different tables or passages of the source.

Sequence of Caspase-3 (P42574 29-175 limits assumed, species assumed): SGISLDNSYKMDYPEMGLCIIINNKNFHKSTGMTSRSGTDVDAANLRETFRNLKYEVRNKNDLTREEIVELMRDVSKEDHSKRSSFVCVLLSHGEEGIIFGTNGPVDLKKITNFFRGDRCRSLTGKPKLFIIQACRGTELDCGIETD
Sequence of Caspase-3 (P42574 176-277 limits assumed, species assumed): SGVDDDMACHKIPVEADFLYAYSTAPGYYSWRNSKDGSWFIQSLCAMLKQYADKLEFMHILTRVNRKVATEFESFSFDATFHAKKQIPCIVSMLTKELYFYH
T1 sequence (Q9UDY8 329-728): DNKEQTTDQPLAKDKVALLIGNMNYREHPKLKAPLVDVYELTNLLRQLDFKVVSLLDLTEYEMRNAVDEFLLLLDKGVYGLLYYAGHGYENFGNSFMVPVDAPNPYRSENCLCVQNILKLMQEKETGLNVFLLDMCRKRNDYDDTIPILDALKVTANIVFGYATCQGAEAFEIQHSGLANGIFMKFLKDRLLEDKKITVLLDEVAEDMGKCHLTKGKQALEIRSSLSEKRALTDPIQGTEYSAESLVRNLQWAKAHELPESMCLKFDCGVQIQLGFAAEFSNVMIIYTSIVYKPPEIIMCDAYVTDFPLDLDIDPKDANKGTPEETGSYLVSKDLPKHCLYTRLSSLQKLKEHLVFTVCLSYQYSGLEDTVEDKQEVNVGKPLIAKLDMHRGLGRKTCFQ

As for `COCCOc1nc(-c2ccc(Cl)c(Cl)c2)n(-c2ccc(NC(=O)CCl)cc2)n1` [MI-2], in assay [1], the “binding by NMR spectroscopy” value is on record as “robust interaction”. Besides, the GI50 in the assay with OCI-Ly3 cells is 400 nM; in the assay with HBL-1 cells (HBL-1, single dose, 48 hr, read-out: GI50) it was 200 nM; in the assay with HBL-1 cells (HBL-1, read-out: GI50 concentration), 200 nM; in the assay with OCI-Ly10 cells it was 400 nM. Besides, the “activity against Caspase-3” value on Caspase-3 was “little activity”. In addition, the “xenograft growth vs. vehicle” value in assay [2] (fourteen injections, p=0.015) is “profoundly suppressed the growth”. For the same compound, the “apoptotic cells (TUNEL assay)” value in assay [2] (p<0.0001) is “significant increase in apoptotic cells”. For the same compound, the “proliferation (Ki-67 staining)” value in assay [2] (p=0.0006) is on record as “significant decrease in proliferation”. Also, the “response of cell number and viability” value in assay [3] was “none of the GCBs did”.
